Data on one compound can be found in patent EP0316592A2, “3'-Fluoro-2',3'-dideoxyuridine, and its therapeutic application” (Stichting REGA V.Z.W., priority 1987, dated 1989).

Like-named read-outs stand apart in the source and are kept apart here.

The Ki is a measure of affinity in units of concentration, obtained from inhibition or displacement. Read a high Ki as lower affinity.

Data set [1] concerns Moloney murine sarcoma virus (MSV). Description: Inhibition of transformation of C3H cells by MSV. In kind it is cell-based. The conditions noted are these: Moloney murine sarcoma virus, 144 h; 50% reduction of transformation of C3H cells by MSV, 6 days; read-out: MSV-induced cyto-pathogenicity ED50. Here is the method:
Moloney murine sarcoma virus (MSV) was prepared from tumors induced by in vivo infection of 10 day-old NMRI mice according to the procedure described by De Clercq et al (Proc. Soc. Exp. Biol. Med. 137, 590-594 (1971)).
ddUrd and the substituted pymiridine 2′,3′-dideoxynucleoside analogues were examined for their inhibitory effect on the transformation of mouse embryo C3H fibroblasts by Moloney murine sarcoma virus (MSV).
C3H cells were seeded at 20,000 cells per ml into wells of Costar Tissue Culture Cluster plates (48 wells per plate) and grown to confluency. Cell cultures were then infected by 150 foci-forming units of MSV during 90 min, whereafter the culture medium was replaced by 1 ml fresh medium containing different concentrations of the test compound. After 6 days, the transformation of the cell cultures was examined microscopically.

In another data set the test system is MOLT/4F CELL DNA. Briefly: Incorporation of radiolabelled precursors into Molt/4F cell DNA. In kind it is cell-based, human. The note with it: Homo sapiens, Molt/4F cell DNA, 20-24 hours. Here is the method:
The impact of ddUrd and the 3′-fluoro- and 3′-azido-substituted pyrimidine 2′,3′-dideoxynucleoside analogues on cellular DNA biosynthesis was evaluated by monitoring the effect of these compounds on the incorporation of radio- labelled (1′,2′-³H)dUrd (specific radioactivity 27 Ci/mmol), (methyl-³H)dThd (specific radioactivity […]) and (5-³H)dCyd (specific radioactivity 20 Ci/mmol) into DNA of Molt/4F cells.
The incorporation of radiolabelled precursors into Molt/4F cellular DNA was measured in microtest III plates (96 wells) (Flacon) as previously described (J. Balzarini et al, Mol. Pharmacol. 23, 175-181 (1983)). Shortly, to each well of the microplate were added 10⁵ Molt/4F cells and 0.25 µCi of (1′,2′-³H)dUrd, (methyl³H)dThd or (5-³H)dCyd. The cells were allowed to proliferate for 20-24 hours at 37°C in a humidified CO₂-controlled atmosphere. At the end of this incubation period, the contents of the wells (200 µ1) were brought onto 25-mm glass-fibre filters (type A/E, Gelman Instrument Company, Ann Arbor, Mich., USA) and washed twice with cold phosphate-buffered saline, twice with cold 10% trichloroacetic acid (TCA), twice with cold 5% TCA, once with ethanol and once with ether. The filters were then assayed for radioactivity in a toluene-based scintillant.

The next data set addresses T1, Molt/4F dThd kinase (Homo sapiens, UniProt P04183).
T1 construct: endogenous in cells; host or cells: Molt/4F cells (sonicated extract, 30-70% ammonium sulfate fraction, dialyzed)
T1 sequence (P04183 1-234): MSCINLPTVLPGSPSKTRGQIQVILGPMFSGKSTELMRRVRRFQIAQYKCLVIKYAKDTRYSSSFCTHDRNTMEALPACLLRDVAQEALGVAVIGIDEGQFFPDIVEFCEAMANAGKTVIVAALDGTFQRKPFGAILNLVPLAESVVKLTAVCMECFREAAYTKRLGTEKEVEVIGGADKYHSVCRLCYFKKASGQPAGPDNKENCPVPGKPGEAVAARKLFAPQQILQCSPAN
Description: Inhibition of dThd kinase (Lineweaver-Burk). In kind it is biochemical. As for the experimental part:
ddUrd and the 3′-fluoro- and 3′-azido-substituted pyrimidine 2′,3′-dideoxynucleoside analogues were evaluated for their inhibitory effect against dThd and dCyd kinase.
dThd kinase and dCyd kinase were prepared from exponen tially growing Molt/4F cells, which were first washed (2x) with phosphate-buffered saline at 4° and then homogenized by sonication. The suspensions were clarified by centrifugation at 25,000-27,000 x g for 30 min. The 30-70% (NH₄)₂SO₄ precipitate of the supernatant was resuspended in buffer containing 10 uM potassium phosphate, pH 7.5, 10 mM β-mercaptoethanol and 0.1 M KCl, dialyzed against the same buffer, and used for the dThd kinase and the dCyd kinase assays. In these experiments, (2-¹⁴C)dThd and (U-¹⁴C)dCyd served as the radiolabelled substrates. The apparent Km and Ki values were derived from Lineweaver-Burk plots, using a linear regression analysis program.

Data set [2] addresses T2, bacterial thymidine phosphorylase (Escherichia coli, UniProt P07650).
T2 construct: purchased Sigma Chemical Co., St. Louis, MO
Briefly: Phosphorolytic cleavage by dThd phosphorylase. The conditions noted are these: 25°C, 0.1 M sodium phosphate buffer, pH 7.0; N.D. = not detectable with 25 units of enzyme. It counts as biochemical. Here is the method:
Phosphorolytic cleavage of the test compounds was assessed using purified bacterial dThd phosphorylase (Sigma Chemical Co., St. Louis, MO) with the aid of a Beckman spectrophotometer UV/Vis 5200; the absorbance change during the enzyme reaction was continuously monitored at 25°C at the wavelength where the difference of absorption between the nucleoside and its free base was maximal. The reaction mixtures for all the assays consisted of enzyme and non-satura ting concentrations of nucleoside in 0.1 M sodium phosphate buffer, pH 7.0. The initial velocity of phosphorolysis was expressed as nmol/min/enzyme unit.

The subject of a further data set is MT4 cells. Description: Cytotoxicity for non-infected MT4 cells (viable cell count). As for the experimental part:
Then 100 µl of the infected cell suspension was added to 100 µl of an appropriate dilution of test compound in 200 µ1 wells of a Flat Bottom Microtest III Plate (Falcon, Becton Dickinson, Oxnard, CA, USA) (i.e. 40 CCID₅₀ HIV/200 µ1 well/5 x 10⁴ cells), and further incubated at 37°C in a CO₂-controlled humidified atmosphere.

For another data set, the system named is C3H cells. Briefly: Cytotoxicity for C3H cells (alteration of normal cell morphology). In kind it is cell-based, mouse.
The subject of a further data set is HIV. Description: Inhibition of HIV-induced cytopathogenicity in MT4 cells. It counts as cell-based. The note with it: for EC50: 50% reduction in the cytopathic effect of HIV for MT4 cells, 5 days, read-out: HIV-induced cyto-pathogenicity ED50. Here is the method: HTLV-IIIB (designated HIV) was derived from a pool of American patients with AIDS, and obtained from the supernatant of HIV-infected H9 cell cultures (see M. Popovic et al, Science 224, 497-500 (1984)).
FddUrd, the unsubstituted analogue and other 3′-fluoro- and 3′-azido-substituted analogues were evaluated for their inhibitory effects on HIV-induced cytopathogenicity in MT4 cells (Table 1, fig. 2).
In general terms: Protection from cytopathic effect is a common read-out in antiviral testing.

T2 sequence (P07650 whole entry): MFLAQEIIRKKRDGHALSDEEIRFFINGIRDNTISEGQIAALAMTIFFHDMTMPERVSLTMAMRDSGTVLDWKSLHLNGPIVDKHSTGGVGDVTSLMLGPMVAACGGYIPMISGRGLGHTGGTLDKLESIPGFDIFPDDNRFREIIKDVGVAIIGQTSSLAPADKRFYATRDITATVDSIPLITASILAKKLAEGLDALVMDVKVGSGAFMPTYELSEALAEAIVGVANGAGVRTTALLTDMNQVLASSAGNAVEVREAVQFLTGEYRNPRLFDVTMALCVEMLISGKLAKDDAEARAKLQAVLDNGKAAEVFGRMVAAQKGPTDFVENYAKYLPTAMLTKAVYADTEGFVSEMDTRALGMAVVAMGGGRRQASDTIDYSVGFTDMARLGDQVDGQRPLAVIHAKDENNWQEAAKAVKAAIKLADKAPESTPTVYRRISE

In the case of `O=c1ccn([C@H]2CC[C@@H](CO)O2)c(=O)[nH]1` [ddUrd, 2′-3′-dideoxyuridine], the EC50 was more than 400 µM in data set [1]; 210 µM in the data set on HIV; more than 64 µM in the data set with HIV (Human immunodeficiency virus 1, MT4, 120 h). For the same compound, the IC50 in the data set on MOLT/4F CELL DNA (read-out: ID50 (1',2'-3H)dUrd incorporation), with MOLT/4F CELL DNA (read-out: ID50 (5-3H)dCyd incorporation) and in the data set on MOLT/4F CELL DNA (read-out: ID50 (methyl-3H)dThd incorporation) was more than 1000 µM each time. In addition, the Ki/Km at Molt/4F dThd kinase is recorded as more than 250. For the same compound, the “inhibitory activity against dThd kinase (in words)” value at Molt/4F dThd kinase (at a concentration as high as 750 µM or 1000 µM) is “no inhibitory activity”. Further, at Molt/4F dThd kinase (dThd kinase, substrate (2-14C)dThd), the Ki was more than 1000 µM. The “Initial velocity of phosphorolysis” value in data set [2] came to 0.270 nmol/min/unit. Moreover, the “HIV-induced cyto-pathogenicity CD50” value in the data set on MT4 cells is more than 625 µM. For the same compound, the “MSV-induced cyto-pathogenicity CD50” value in the data set on C3H cells is on record as more than 400 µM. The “HIV-induced cyto-pathogenicity S.I.” value in the data set with HIV (Selectivity index or ratio of CD50 to ED50, MT4 cells) was more than 3.
